Results reported in patent publication US8247529B2, “Neoplasia targeting peptides and methods of using the same” (The Board of Trustees of the Leland Stanford Junior …, priority 2008, dated 2012).
“Also recorded” adds a separate entry of the source.

Experiments:
[1] = test system: high-grade dysplasia in Barrett's esophagus; assay: Clinical imaging (fluorescence endoscopy of distal esophagus); assay type: in vivo; conditions: human, topical ~3 ml 10 μM
Excerpt: Endoscopic images collected in vivo of distal esophagus in human subject with Barrett's esophagus and high grade dysplasia on white-light endoscopy (Panel a) and fluorescence imaging (Panel b).
A prototype endoscope was used to collect fluorescence images of peptide binding from human subjects with Barrett's esophagus and high-grade dysplasia using the target peptide labeled with FITC. With IRB approval and informed consent, human subjects with a history of Barrett's esophagus and biopsy proven high-grade dysplasia scheduled for endoscopic mucosal resection were recruited into the study. After esophageal intubation, a 10 second video was collected in the white light mode. Then, ˜3 ml of peptide at a concentration of 10 μM was administered topically to the distal esophagus using a mist spray catheter. After 5 minutes for incubation, excess peptide was gently rinsed off with water, and another 10 second video was collected of the peptide targeted fluorescence image. The mucosa of the distal esophagus was then removed by endoscopic mucosal resection. Each video stream was exported into individual frames.
(§1) No distinct architectural lesions can be appreciated. […] Targeted biopsies were collected from sites suspicious for HGD, non-dysplastic Barrett's esophagus. The specimens were embedded in OCT media, cooled to […], and cut into 10 μm horizontal sections on a cryostat.

[2] = test system: esophageal adenocarcinoma within Barrett's esophagus; assay: In vivo molecular imaging, small animal model (EGJ rat, fluorescence endoscopy); conditions: topical 1 mL 100 μM, 5 min incubation, rinsed
Excerpt: In vivo molecular imaging has been performed in small animal models of esophageal neoplasia to localize binding by targeted peptides. A rigid endoscope for imaging the rat esophagus consists of a 9.5 Fr (3 mm) diameter rigid Hopkins II 0 deg telescope with a 11.5 cm working length (Karl Storz Veterinary Endoscopy, Goleta, Calif.). A 3 Fr (1 mm) diameter instrument channel is available to perform tissue biopsy. Fluorescence excitation light is produced with a 450 to 475 nm passband filter that can be manually placed into the optical path of a xenon (175 W) light source, and is delivered to the endoscope via a light guide. Fluorescence images were collected with 510 nm barrier filter to block the excitation light, and detected with a color CCD camera. The molecular imaging studies were performed in the surgically-altered (EGJ) rats after 36 weeks. The rats were fasted overnight, anesthetized using inhaled isoflurane, and placed in the supine position. The extremities and incisors were restrained to prevent injury to the animal. The endoscope was inserted into the distal esophagus using ˜1 to 2 ml of air injected through an instrument port to dilate the esophageal lumen. The FITC-labeled target peptide was topically administered through the instrument channel onto the distal esophagus in a 1 mL solution diluted in PBS at a concentration of 100 μM. After incubation for 5 minutes, excess peptide was rinsed off with tap water, and binding was evaluated by fluorescence. […] A complete examination usually lasts <2 minutes.

[3] = test system: Seg-1 cells; assay: Peptide binding on cell lines; conditions: 100 μmol FITC-conjugated peptide, 15 min room temperature
Protocol: (§2) FITC-conjugated peptide (100 μmol) was incubated with Segl (Panel a), OE21 (Panel c), QhTERT (Panel d) cells. Peptide binding were found in plasma membrane of >90% of Seg1 cells (Panel a).
(§3) 3×10^4-5×10^4 Seg-1, OE21, QhTERT cells were grown in chamber slides.
(§4) Blocking of non-specific binding to these cells was performed by adding 200 μL of 1% BSA diluted in PBS for 30 min. The cells were then incubated with 100 μmol of the targeted FITC conjugated peptide in serum free media for 15 min in room temperature. The scrambled peptide had been used as control. Wash cells 3-time use 200 μL PBS/0.5% TWEEN 20 in room temperature. Cell were fixed by ice cold Acetone 90 second. Then mounted by Vectashield mounting medium with DAPI. Fluorescence images were collected with a confocal microscope (Nikon 1000) at 200×. The fluorescence intensity from the cells in 3 images were averaged to assess peptide binding.

[4] = test system: Barrett's mucosa with high-grade dysplasia; assay: Confocal fluorescence of frozen sections of targeted biopsies after clinical imaging; assay type: binding; conditions: biopsies after topical administration in human subjects, 400×
Protocol: (§5) Routine histology (H&E) of corresponding images is shown in Panel c and Panel d, magnification 400×.
as §1
(§6) The specimens were then evaluated for fluorescence on a tabletop confocal microscope, and an adjacent section was formalin fixed and stained with H&E for evaluation by two pathologists. […] Routine histology (H&E) of the corresponding images (Panels c and d) from adjacent frozen sections are also shown for purposes of comparison, magnification 400×.

[5] = test system: Barrett's mucosa with no dysplasia; assay: as above; assay type: binding; conditions: biopsies after topical administration in human subjects, 400×
Protocol: as §5, §1, §6

[6] = test system: TE7 cells; assay: Peptide binding on cell lines; conditions: FITC-conjugated peptide
Protocol: as §4

[7] = test system: GIL hTERT(HGD) cells; assay: Peptide binding on cell lines; conditions: FITC-conjugated peptide
Protocol: as §4

[8] = test system: Seg-1 cells (esophageal adenocarcinoma); assay: Phage binding assay (cell binding of phage clones relative to insertless phage); conditions: Seg-1 vs QhTERT, p<0.01
Protocol: Individual phage clones (2×10^11 pfu) were incubated at room temperature for 30 min with Segl and Q-hTERT cells. The columns represent the mean of measurements from three wells and the bars represent the standard deviation (SD). P-values for each group were calculated using student's t test.
According to the sequencing results some peptide sequence expressed on more than one phage clones. These phage clones had been amplified respectively for the binding assay. Seg-1 cell and Q-hTERT cell (None dysplasia Barrett's cell line) were growth in 6 well plate. 2×10^11 pfu each single clone phage were incubated with both cell in triple wells. Wild-type (no insert) phage (M13KE, New England Biolabs, Beverly, Mass.) was used as control. The incubation, two-step elution and tittering were done as mentioned above. […] Fold binding of each phage relative to none insert phage was measured. Different binding of each phage clone on Seg-1 and QhTERT were calculated using student's t test.

[9] = test system: QhTERT (normal Barrett's) cells; assay: Peptide binding on cell lines; conditions: 100 μmol FITC-conjugated peptide, 15 min room temperature
Protocol: as §2, §3, §4

[10] = test system: OE21 cells (squamous esophagus carcinoma); assay: Peptide binding on cell lines; conditions: 100 μmol FITC-conjugated peptide, 15 min room temperature
Protocol: as §2, §3, §4

[11] = test system: normal (non-dysplastic) Barrett's tissue; assay: Targeted peptide binding on esophageal mucosa (human tissue specimens); conditions: 100 μmol FITC-conjugated peptide in PBS, 15 min, fresh biopsy
Protocol: (§7) Specimens were incubated with 100 μmol FITC-conjugated peptide in PBS (Panels a, b, c, d). Hematoxylin and eosin staining (Panels e, f, g, h) was performed on adjacent sections to show the pathology diagnosis. In HGD tissue the binding site is a group of consecutive cells located in the lining of esophageal. In normal Barrett's mucosa the binding site is sporadic separated cells in some area of mucosa.
(§8) IRB approval was granted by the Stanford University Medical Center, the VA Palo Alto Health Care Systems, and El Camino Hospital. Human subjects with a history of Barrett's esophagus undergoing routine screening endoscopy were recruited for this study and informed consent was obtained. Subjects with coagulation abnormalities, or low tolerance for endoscopy were excluded from the study. Tissue specimens were collected using standard pinch biopsy from regions of endoscopically apparent Barrett's and squamous esophagus and duodenum mucosa. Histopathology was evaluated by two gastrointestinal pathologists in a blinded fashion according to common criteria (Goldblum, Mod Pathol 2003;16:316-24).
(§9) The tissue specimens were placed immediately after excision in an Eppendorf tube containin PBS at 4° C. PBS and incubated with100 μmol of targeted peptide ‘ASYNYDA’ for 15 minutes at room temperature. After being washed three times with PBS at 4° C., the specimens were embedded in OCT freezing compound (Sakura finetek USA), cut in 6 μm sections, and placed onto Poly-D-lysine coated slides. The tissue specimens were fixed in acetone at 4° C. for 90 seconds, counterstained with DAPI, and mounted in Vectashield. An adjacent serial section of the specimen was cut and stained with H&E for routine histology and comparison.
(§10) For each specimen 10 serial section were screened under microscope. Three highest intensity fluorescence images were collected at 400× using the same gain and exposure time. Fluorescence intensities of images were quantified by NIH Image J software to calculate pixel value between each sample under the same threshold (40, 255). Differences in the mean fluorescence intensities between four tissue types were compared using a student's t test.

[12] = test system: duodenal mucosa; assay: as above; conditions: 100 μmol FITC-conjugated peptide in PBS, 15 min, fresh biopsy
Protocol: as §7, §8, §9, §10

[13] = test system: adjacent normal esophageal mucosa; assay: as above; conditions: 100 μmol FITC-conjugated peptide in PBS, 15 min, fresh biopsy
Protocol: as §7, §8, §9, §10

[14] = test system: Barrett's with high-grade dysplasia (HGD) tissue; assay: as above
Protocol: as §7, §8, §9, §10

[15] = test system: Seg1 cells; assay: Competitive inhibition assay; assay type: binding; conditions: unconjugated peptide 100, 500, 1000 μmol (5 or 10 times higher concentration) 15 min prior to FITC-conjugated peptide, P<0.01
Protocol: Unconjugated peptide was incubated with Seg1 cells 15 min prior to adding of FITC-conjugated peptide in three different concentrations. […] Error bars represent mean±s.e.m. for 3 images. *P<0.01.
Competitive inhibition of targeted peptide binding was evaluated by incubating the cells in culture with unconjugated (no FITC) peptide at concentrations of 100, 500, and 1000 μmol. Three fluorescence images were collected at 200× from each well of the chamber slide using the same gain and exposure time. Images selected for analysis met the following criteria: 1) 70-90% cell confluence, 2) away from the edge of each well, 3) low background binding on cell free area of slide, 4) No change in cellular morphology. The mean cell numbers under three 200× view were record to calculate the percentage of peptide binding cells. Quantification of the fluorescence intensities was done by NIH Image J software to calculate pixel value between each group under the same threshold. Differences in the mean fluorescence intensities were compared using a student's t test.

ASYNYDA-GGGSK-FITC [Peptide 17-FITC]
fluorescence at site of lesion after topical peptide ([1]; 5 min incubation, rinsed, listed as FITC-labeled target peptide): increased fluorescence intensity at a site; also recorded: increased fluorescence intensity at the site of the lesion | target-to-background ratio (HGD vs non-dysplastic Barrett's metaplasia) ([1]; mean fluorescence of 5 independent regions): 1.52 | average target-to-background ratio [2]: 5±2 | fluorescence at site of lesion after topical peptide ([2]; listed as FITC-labeled target peptide): Increased fluorescence intensity was observed at the site of the lesion | fluorescence at site of lesion after topical peptide ([2]; listed as target peptide): increased fluorescence intensity at the site of the lesion | percentage of Seg-1 cells with peptide binding on plasma membrane [3]: > 90% | binding to Barrett's mucosa with high-grade dysplasia (frozen section) ([4]; listed as FITC-labeled peptide): significant binding | binding to Barrett's mucosa with high-grade dysplasia (frozen section) ([4]; listed as target peptide): Significant binding | binding to Barrett's mucosa with no dysplasia (frozen section) [5]: minimal binding | percentage of TE7 cells with peptide binding on cytoplasm [6]: 37% | percentage of GIL hTERT(HGD) cells with peptide binding on cytoplasm [7]: 1%

ASYNYDA
fluorescence intensity with Seg-1 than with QhTERT cells [8]: 5 times | peptide binding to QhTERT cells [9]: didn't binding | peptide binding to OE21 cells [10]: didn't binding | peptide binding to normal Barrett's tissue [11]: bound | peptide binding to duodenal mucosa [12]: did not bind | peptide binding to adjacent normal esophageal mucosa [13]: did not bind | peptide binding to Barrett's with high-grade dysplasia tissue ([14]; 100 μmol FITC-conjugated peptide in PBS, 15 min, fresh biopsy): bound | quantization of peptide binding (fluorescence intensity, NIH Image J), HGD vs other tissues ([14]; HGD vs Barrett's, duodenal and normal esophageal mucosa, P<0.01): higher preferential bind on HGD than other tissues | inhibition of FITC-conjugated peptide binding to Seg1 cells by unconjugated peptide [15]: can be inhibited | inhibition of FITC-conjugated peptide binding to Seg1 cells by unconjugated peptide ([15]; listed as unconjugated peptide 17): could be inhibited

YANSAYD [scrambled peptide-FITC]
peptide binding to Seg-1 cells [3]: did not bind on any cells | peptide binding to Seg-1 cells ([3]; listed as Scrambled FITC-conjugated peptide): no binding
